As usually defined, the melting point is the temperature of the solid-liquid transition. By IC50 is commonly meant the concentration needed to halve the response being measured.

SMILES strings stand for the structures. A value given as a limit tells only on which side of the number the result lay.

The values below come from publication PMC5289826 (PLoS ONE, 2017).

Series [1] deals with T1, recombinant human 11β-HSD2.
T1 construct: expressed in transfected cells
The series is described as follows: 11β-HSD2 enzyme activity in cell lysates (cortisol to cortisone). The note with it: 1 μM compound; lysates of HEK-293 cells; 50 nM cortisol. Format: biochemical. The method, then:
(§1) Human embryonic kidney (HEK-293) cells either stably expressing human 11β-HSD1 and H6PDH (HHH7 clone, [38]) or 11β-HSD2 (AT8 clone, [39]), or transiently expressing human 17β-HSD1 or 17β-HSD2, were cultivated in Dulbecco’s modified Eagle medium (DMEM) containing 4.5 g/L glucose, 10% fetal bovine serum, 100 U/mL penicillin, 0.1 mg/mL streptomycin, 1 × MEM nonessential amino acids, and 10 mM HEPES buffer, pH 7.4. Cells were washed with phosphate-buffered saline (PBS), centrifuged for 4 min at 150 × g, and the cell pellets were snap frozen on dry ice and stored at −80°C until further use.
(§2) Cell lysates were resuspended in TS2 buffer (100 mM NaCl, 1 mM EGTA, 1 mM EDTA, 1 mM MgCl2, 250 mM sucrose, 20 mM Tris-HCl, pH 7.4), followed by sonication at 4°C using a Hielscher UP50H ultrasonic processor (0.3 cycle, 20 amplitude %, 20 impulses; Hielscher Ultrasonics GmbH, Teltow Germany). Cell lysates, reaction mixture, and either vehicle (DMSO) or inhibitor were incubated for 10 min at 37°C in a final volume of 22.2 μL. The solvent concentration was 0.1%. […] 11β-HSD2 activity was measured in the presence of 50 nM cortisol and 500 μM NAD^+. An amount of 50 nCi of radiolabeled tracer substrate was included in the experiments. […] The bands of the corresponding steroids were excised, followed by scintillation counting and calculation of the amount of substrate conversion. Data were obtained from at least three independent measurements. Glycyrrhetinic acid (CTRL 1) was used as positive control for 11β-HSD1 and 11β-HSD2 inhibition, apigenin (CTRL 2) for 17β-HSD1, and compound 22 from Vuorinen et al. [40](CTRL 3) for 17β-HSD2 inhibition.

The target in series [2] is T2, recombinant human 11β-HSD1 (Homo sapiens, UniProt P28845).
T2 construct: expressed in transfected cells
T2 sequence (P28845 whole entry): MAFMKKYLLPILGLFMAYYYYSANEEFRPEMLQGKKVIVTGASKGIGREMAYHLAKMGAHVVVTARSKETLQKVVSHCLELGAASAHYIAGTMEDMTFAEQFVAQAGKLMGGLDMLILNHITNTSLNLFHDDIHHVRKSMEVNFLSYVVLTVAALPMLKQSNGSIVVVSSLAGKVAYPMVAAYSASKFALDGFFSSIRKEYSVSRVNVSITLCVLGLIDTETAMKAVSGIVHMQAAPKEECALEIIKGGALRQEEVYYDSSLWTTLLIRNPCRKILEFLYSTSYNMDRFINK
The series is described as follows: 11β-HSD1 enzyme activity in cell lysates (cortisone to cortisol, radiolabeled tracer, TLC). The series is classed as biochemical. The note with it: for 11β-HSD1 Residual activity, % of control at 100 nM: 100 nM compound; for 11β-HSD1 Residual activity, % of control at 100 nM / 11β-HSD1 Residual activity, % of control at 1 μM: lysates of HEK-293 cells, 200 nM cortisone, mean of three experiments; for 11β-HSD1 Residual activity, % of control at 1 μM: 1 μM compound; for activity towards 11β-HSD1, effect of substituent (in words): SAR comparison within the series. The method, then: as §1, §2

Take `Cc1ccc(-c2cccc(C(=O)N3CCCCCC3)c2)cc1` [1e, Azepan-1-yl(4’-methyl-[1,1’-biphenyl]-3-yl)methanone]: the melting point lay in the range of 109 to 111 °C. The “11β-HSD2 Residual activity, % of control at 1 μM” value (“11β-HSD2 Residual activity, %” for short) in series [1] is on record as > 90 % of control. For the same molecule, in series [2], the IC50 was 37.4 nM and the “11β-HSD1 Residual activity, % of control at 100 nM” value is given as 17 % of control.

Turning to `Cc1ccc(-c2cccc(C(=O)N3CCCC(C)(C)C3)c2)cc1F` [3a, (3,3-Dimethylpiperidin-1-yl)(3’-fluoro-4’-methyl-[1,1’-biphenyl]-3-yl)methanone], in series [1], the “11β-HSD2 Residual activity, %” value is > 90 % of control. Moreover, in series [2], the IC50 was 47.2 nM; the “11β-HSD1 Residual activity, % of control at 100 nM” value is given as 60 % of control; the “11β-HSD1 Residual activity, % of control at 1 μM” value is 3 % of control.

`Cc1ccc(-c2cccc(C(=O)N3CCC[C@H]3C(N)=O)c2)cc1F` [3f, (S)-1-(3’-fluoro-4’-methyl-[1,1’-biphenyl]-3-carbonyl)-pyrrolidine-2-carboxamide] had a melting point of 73 to 75 °C. In addition, the “11β-HSD2 Residual activity, %” value in series [1] is given as > 90 % of control. Also, in series [2], the “11β-HSD1 Residual activity, % of control at 100 nM” value is listed as > 90 % of control and the “11β-HSD1 Residual activity, % of control at 1 μM” value is listed as > 90 % of control. The “activity towards 11β-HSD1, effect of substituent (in words)” value (“activity towards 11β-HSD1, effect” below) in series [2] (cell lysates) is recorded as “abolished the activity”.

Take `Cc1ccc(-c2cccc(C(=O)N3CC(C)OC(C)C3)c2)cc1F` (stereo not shown) [3d, (2,6-Dimethylmorpholino)(3’-fluoro-4’-methyl-[1,1’-biphenyl]-3-yl)methanone]: the “11β-HSD2 Residual activity, %” value in series [1] is given as > 90 % of control. In series [2], the “11β-HSD1 Residual activity, % of control at 100 nM” value is on record as 44 % of control and the “11β-HSD1 Residual activity, % of control at 1 μM” value is 4 % of control.

As for `O=C(c1cccc(-c2ccc(Cl)cc2)c1)N1CCCCCC1` [5e, Azepan-1-yl(4’-chloro-[1,1’-biphenyl]-3-yl)methanone], the melting point was in the range of 116 to 117 °C. Further, in series [1], the “11β-HSD2 Residual activity, %” value is recorded as > 90 % of control. For the same molecule, in series [2], the “11β-HSD1 Residual activity, % of control at 100 nM” value is reported as 50 % of control and the “11β-HSD1 Residual activity, % of control at 1 μM” value is listed as 2 % of control.

As to `CC1CCN(C(=O)c2cccc(-c3ccccc3Cl)c2)CC1` [6b, (2’-Chloro-[1,1’-biphenyl]-3-yl)(4-methylpiperidin-1-yl)methanone], in series [1], the “11β-HSD2 Residual activity, %” value was > 90 % of control. Besides, in series [2], the IC50 stood at 62.2 nM; the “11β-HSD1 Residual activity, % of control at 100 nM” value was 49 % of control; the “11β-HSD1 Residual activity, % of control at 1 μM” value is recorded as 4 % of control.

With `CC1CCN(C(=O)c2cccc(-c3cccc(C(N)=O)c3)c2)CC1` [10b, 3’-(4-methylpiperidine-1-carbonyl)-[1,1’-biphenyl]-3-carboxamide], in series [1], the “11β-HSD2 Residual activity, %” value is > 90 % of control. Moreover, in series [2], the “11β-HSD1 Residual activity, % of control at 100 nM” value is reported as 89 % of control and the “11β-HSD1 Residual activity, % of control at 1 μM” value is listed as 34 % of control. Moreover, in series [2] (cell lysates), the “activity towards 11β-HSD1, effect” value is “substantial loss of activity”.

Take `Cc1ccc(-c2cccc(C(=O)N3CCCCCC3)c2)cc1C` [11e, Azepan-1-yl(3’,4’-dimethyl-[1,1’-biphenyl]-3-yl)methanone]: the “11β-HSD2 Residual activity, %” value in series [1] is > 90 % of control. Also, the “11β-HSD1 Residual activity, % of control at 100 nM” value in series [2] is 69 % of control. Also, the “activity towards 11β-HSD1, effect” value in series [2] (cell lysates) is recorded as “lower activity”.

In the case of `CC1CCN(C(=O)c2cccc(-c3ccc(Cl)cc3)c2)CC1` [5b, (4’-Chloro-[1,1’-biphenyl]-3-yl)(4-methylpiperidin-1-yl)methanone], in series [1], the “11β-HSD2 Residual activity, %” value is reported as > 90 % of control. Further, in series [2], the “11β-HSD1 Residual activity, % of control at 100 nM” value was 58 % of control and the “11β-HSD1 Residual activity, % of control at 1 μM” value is 3 % of control.

On to `CC1CCN(C(=O)c2cccc(-c3ccc(C(N)=O)cc3)c2)CC1` [9b, 3’-(4-methylpiperidine-1-carbonyl)-[1,1’-biphenyl]-4-carboxamide], for which the melting point fell in the range of 188 to 190 °C. For the same molecule, the “11β-HSD2 Residual activity, %” value in series [1] was > 90 % of control. Besides, in series [2], the “11β-HSD1 Residual activity, % of control at 100 nM” value is 65 % of control and the “11β-HSD1 Residual activity, % of control at 1 μM” value is on record as 19 % of control. Moreover, the “activity towards 11β-HSD1, effect” value in series [2] (cell lysates) was “substantial loss of activity”.

For the molecule `Cc1ccc(-c2cccc(C(=O)N3CCOC(C)(C)C3)c2)cc1F` [3c, (2,2-Dimethylmorpholino)(3’-fluoro-4’-methyl-[1,1’-biphenyl]-3-yl)methanone], in series [2], the IC50 came out at 27.9 nM; the “11β-HSD1 Residual activity, % of control at 100 nM” value was 14 % of control; the “11β-HSD1 Residual activity, % of control at 1 μM” value was 1 % of control.

As for `NC(=O)[C@@H]1CCCN1C(=O)c1cccc(-c2ccccc2Cl)c1` [6f, (S)-1-(2’-Chloro-[1,1’-biphenyl]-3-carbonyl)-pyrrolidine-2-carboxamide], in series [1], the “11β-HSD2 Residual activity, %” value is > 90 % of control. Also, in series [2], the “11β-HSD1 Residual activity, % of control at 100 nM” value was > 90 % of control and the “11β-HSD1 Residual activity, % of control at 1 μM” value is recorded as > 90 % of control. For the same molecule, the “activity towards 11β-HSD1 (in words)” value in series [2] (at 1 μM, cell lysates) is “inactive”.

`CC1CCN(C(=O)c2cccc(-c3cccc(O)c3)c2)CC1` [8b, (3’-Hydroxy-[1,1’-biphenyl]-3-yl)(4-methylpiperidin-1-yl)methanone]: the “11β-HSD2 Residual activity, %” value in series [1] is reported as > 90 % of control. Besides, in series [2], the “11β-HSD1 Residual activity, % of control at 100 nM” value was 70 % of control and the “11β-HSD1 Residual activity, % of control at 1 μM” value was 8 % of control. In addition, in series [2] (cell lysates), the “activity towards 11β-HSD1, effect” value is listed as “lower activity”.

For `Cc1ccc(-c2cccc(C(=O)N3CCC(C)CC3)c2)cc1F` [3b], the “11β-HSD2 Residual activity, %” value in series [1] is > 90 % of control. Moreover, in series [2], the IC50 turned out to be 53.8 nM; the “11β-HSD1 Residual activity, % of control at 100 nM” value is 44 % of control; the “11β-HSD1 Residual activity, % of control at 1 μM” value was 1 % of control.

As for `Cc1ccc(-c2cccc(C(=O)N3CCC(C)CC3)c2)cc1` [1b, (4’-Methyl-[1,1’-biphenyl]-3-yl)(4-methylpiperidin-1-yl)methanone], the “11β-HSD2 Residual activity, %” value in series [1] is on record as > 90 % of control. Further, in series [2], the IC50 was 47.7 nM; the “11β-HSD1 Residual activity, % of control at 100 nM” value is 52 % of control; the “11β-HSD1 Residual activity, % of control at 1 μM” value was 1 % of control.

Turning to `O=C(c1cccc(-c2ccc(O)cc2)c1)N1CCCCCC1` [7e, Azepan-1-yl(4’-hydroxy-[1,1’-biphenyl]-3-yl)methanone], the melting point was in the range of 184 to 185 °C. In addition, the “11β-HSD2 Residual activity, %” value in series [1] is > 90 % of control. In addition, in series [2], the “11β-HSD1 Residual activity, % of control at 100 nM” value is on record as 28 % of control.

As for `CC1CCN(C(=O)c2cccc(-c3ccc(F)cc3)c2)CC1` [4b, (4’-Fluoro-[1,1’-biphenyl]-3-yl)(4-methylpiperidin-1-yl)methanone], the “11β-HSD2 Residual activity, %” value in series [1] is on record as > 90 % of control. Moreover, in series [2], the “11β-HSD1 Residual activity, % of control at 100 nM” value is 43 % of control and the “11β-HSD1 Residual activity, % of control at 1 μM” value is 4 % of control.

In the case of `Cc1ccc(-c2cccc(C(=O)N3CCCCCC3)c2)cn1` [2e, Azepan-1-yl-(3-(6-methylpyridin-3-yl)phenyl)methanone], the “11β-HSD2 Residual activity, %” value in series [1] was > 90 % of control. Further, in series [2], the IC50 is 46 nM and the “11β-HSD1 Residual activity, % of control at 100 nM” value was 30 % of control.
